Assay results: ChEMBL document CHEMBL4507277

Key:
[1] = tested on: Tyrosine-protein kinase ABL1 (Homo sapiens), P00519 [T315I]; settings: Compound concentration 1000.0 nM
[2] = target: Activin receptor type-1-like (Homo sapiens) (UniProt P37023); settings: Compound concentration 1000.0 nM
[3] = target: Serine/threonine-protein kinase BRSK1 (Homo sapiens) (UniProt Q8TDC3); settings: Compound concentration 1000.0 nM
[4] = target: Peripheral plasma membrane protein CASK (Homo sapiens) (UniProt O14936); settings: Compound concentration 1000.0 nM
Peripheral plasma membrane protein CASK (Homo sapiens), sequence (O14936 whole entry): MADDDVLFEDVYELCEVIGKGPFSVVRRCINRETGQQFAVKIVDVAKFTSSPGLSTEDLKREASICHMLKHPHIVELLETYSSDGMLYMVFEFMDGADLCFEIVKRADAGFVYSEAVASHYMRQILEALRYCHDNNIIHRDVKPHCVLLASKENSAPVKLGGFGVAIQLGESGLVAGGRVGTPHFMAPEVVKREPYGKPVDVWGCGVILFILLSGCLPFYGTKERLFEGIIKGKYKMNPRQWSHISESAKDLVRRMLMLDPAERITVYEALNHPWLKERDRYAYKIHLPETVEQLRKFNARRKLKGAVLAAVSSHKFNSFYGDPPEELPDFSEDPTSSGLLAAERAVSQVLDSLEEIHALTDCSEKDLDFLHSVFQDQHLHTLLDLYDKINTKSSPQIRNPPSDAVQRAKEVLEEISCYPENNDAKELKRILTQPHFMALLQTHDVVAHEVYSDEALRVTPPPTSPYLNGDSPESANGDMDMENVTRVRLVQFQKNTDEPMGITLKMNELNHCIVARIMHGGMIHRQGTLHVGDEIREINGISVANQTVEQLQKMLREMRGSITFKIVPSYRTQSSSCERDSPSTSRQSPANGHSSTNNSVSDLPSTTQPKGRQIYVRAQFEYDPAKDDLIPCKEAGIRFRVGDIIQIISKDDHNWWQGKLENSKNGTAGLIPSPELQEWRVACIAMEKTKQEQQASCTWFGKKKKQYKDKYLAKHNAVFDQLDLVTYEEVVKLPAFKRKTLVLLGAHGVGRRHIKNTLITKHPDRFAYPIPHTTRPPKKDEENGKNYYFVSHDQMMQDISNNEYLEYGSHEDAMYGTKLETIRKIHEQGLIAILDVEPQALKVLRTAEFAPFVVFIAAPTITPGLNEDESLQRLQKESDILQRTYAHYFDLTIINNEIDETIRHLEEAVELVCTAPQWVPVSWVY

[5] = target: Cyclin-dependent kinase-like 3 (Homo sapiens) (UniProt Q8IVW4); settings: Compound concentration 1000.0 nM
[6] = target: Dual specificity protein kinase CLK2 (Homo sapiens) (UniProt P49760); settings: Compound concentration 1000.0 nM
[7] = target: Casein kinase I isoform gamma-3 (Homo sapiens) (UniProt Q9Y6M4); settings: Compound concentration 1000.0 nM
Casein kinase I isoform gamma-3 (Homo sapiens), sequence (Q9Y6M4 whole entry, looked up, the tested form may be a part, canonical isoform): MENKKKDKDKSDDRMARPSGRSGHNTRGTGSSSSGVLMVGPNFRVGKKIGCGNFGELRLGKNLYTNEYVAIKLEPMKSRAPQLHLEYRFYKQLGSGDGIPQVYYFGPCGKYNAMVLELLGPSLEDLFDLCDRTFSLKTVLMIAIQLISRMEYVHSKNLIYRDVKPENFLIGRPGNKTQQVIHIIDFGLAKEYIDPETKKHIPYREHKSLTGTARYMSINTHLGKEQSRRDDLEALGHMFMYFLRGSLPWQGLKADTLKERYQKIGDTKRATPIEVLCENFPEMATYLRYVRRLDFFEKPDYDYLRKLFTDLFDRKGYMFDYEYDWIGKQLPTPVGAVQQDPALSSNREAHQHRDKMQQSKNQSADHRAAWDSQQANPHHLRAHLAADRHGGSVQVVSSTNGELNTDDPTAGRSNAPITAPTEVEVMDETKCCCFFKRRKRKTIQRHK

[8] = target: Epithelial discoidin domain-containing receptor 1 (Homo sapiens) (UniProt Q08345); settings: Compound concentration 1000.0 nM
[9] = target: Tyrosine-protein kinase Fyn (Homo sapiens) (UniProt P06241); settings: Compound concentration 1000.0 nM
Tyrosine-protein kinase Fyn (Homo sapiens), sequence (P06241 2-537 limits assumed): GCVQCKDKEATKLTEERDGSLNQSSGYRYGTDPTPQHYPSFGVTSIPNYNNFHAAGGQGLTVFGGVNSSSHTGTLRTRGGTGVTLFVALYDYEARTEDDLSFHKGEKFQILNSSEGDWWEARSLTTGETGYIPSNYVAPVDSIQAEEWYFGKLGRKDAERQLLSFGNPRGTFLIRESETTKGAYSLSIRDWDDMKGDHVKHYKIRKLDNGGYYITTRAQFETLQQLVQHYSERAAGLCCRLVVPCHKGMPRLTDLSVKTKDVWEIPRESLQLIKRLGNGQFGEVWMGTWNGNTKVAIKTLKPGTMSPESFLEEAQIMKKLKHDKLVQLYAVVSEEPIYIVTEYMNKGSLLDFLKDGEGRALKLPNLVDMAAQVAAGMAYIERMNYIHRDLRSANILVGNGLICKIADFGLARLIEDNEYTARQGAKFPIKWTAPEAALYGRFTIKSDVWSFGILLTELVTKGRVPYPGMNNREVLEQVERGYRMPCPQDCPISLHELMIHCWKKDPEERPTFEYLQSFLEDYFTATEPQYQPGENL

[10] = target: Serine/threonine-protein kinase MARK1 (Homo sapiens) (UniProt Q9P0L2); settings: Compound concentration 1000.0 nM
[11] = target: Hepatocyte growth factor receptor (Homo sapiens) (UniProt P08581); settings: Compound concentration 1000.0 nM
[12] = target: Phosphatidylinositol 4,5-bisphosphate 3-kinase catalytic subunit alpha isoform (Homo sapiens) (UniProt P42336); settings: Compound concentration 1000.0 nM
[13] = target: Protein kinase C delta type (Homo sapiens) (UniProt Q05655); settings: Compound concentration 1000.0 nM
[14] = target: Serine/threonine-protein kinase SIK3 (Homo sapiens) (UniProt Q9Y2K2); settings: Compound concentration 1000.0 nM
Serine/threonine-protein kinase SIK3 (Homo sapiens), sequence (Q9Y2K2 whole entry, looked up): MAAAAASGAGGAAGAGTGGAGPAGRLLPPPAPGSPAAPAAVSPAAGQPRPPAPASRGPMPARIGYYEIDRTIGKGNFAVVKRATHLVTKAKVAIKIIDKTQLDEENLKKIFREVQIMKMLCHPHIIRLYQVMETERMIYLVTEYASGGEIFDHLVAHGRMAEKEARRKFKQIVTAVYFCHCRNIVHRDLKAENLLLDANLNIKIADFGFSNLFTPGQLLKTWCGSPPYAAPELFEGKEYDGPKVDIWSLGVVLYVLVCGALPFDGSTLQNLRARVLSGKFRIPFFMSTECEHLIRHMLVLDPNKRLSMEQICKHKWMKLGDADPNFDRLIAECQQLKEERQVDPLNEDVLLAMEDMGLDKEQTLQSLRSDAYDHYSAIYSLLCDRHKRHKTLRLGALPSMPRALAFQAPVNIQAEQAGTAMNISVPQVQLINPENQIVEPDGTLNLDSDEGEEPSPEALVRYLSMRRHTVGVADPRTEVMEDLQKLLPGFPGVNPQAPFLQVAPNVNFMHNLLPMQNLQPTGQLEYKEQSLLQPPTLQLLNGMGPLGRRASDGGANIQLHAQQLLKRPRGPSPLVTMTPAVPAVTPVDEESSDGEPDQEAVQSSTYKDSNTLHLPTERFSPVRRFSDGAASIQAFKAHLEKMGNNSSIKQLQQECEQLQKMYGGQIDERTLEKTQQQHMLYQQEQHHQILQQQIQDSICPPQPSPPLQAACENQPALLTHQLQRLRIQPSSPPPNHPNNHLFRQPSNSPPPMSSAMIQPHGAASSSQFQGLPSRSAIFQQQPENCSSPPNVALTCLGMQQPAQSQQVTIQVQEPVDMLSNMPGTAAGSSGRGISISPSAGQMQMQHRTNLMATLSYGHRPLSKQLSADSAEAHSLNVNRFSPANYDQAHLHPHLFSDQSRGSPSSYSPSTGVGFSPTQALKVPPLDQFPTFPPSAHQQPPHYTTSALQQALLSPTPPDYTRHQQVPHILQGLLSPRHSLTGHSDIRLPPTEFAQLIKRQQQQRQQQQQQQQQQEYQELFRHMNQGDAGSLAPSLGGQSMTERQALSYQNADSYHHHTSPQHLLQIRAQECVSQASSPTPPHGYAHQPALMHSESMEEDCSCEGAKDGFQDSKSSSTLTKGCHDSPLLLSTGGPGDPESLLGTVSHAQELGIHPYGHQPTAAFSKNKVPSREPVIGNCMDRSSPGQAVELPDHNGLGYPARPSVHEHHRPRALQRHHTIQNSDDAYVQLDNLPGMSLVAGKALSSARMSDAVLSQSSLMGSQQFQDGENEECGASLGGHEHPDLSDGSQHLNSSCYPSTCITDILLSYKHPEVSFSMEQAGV

[15] = target: Ribosomal protein S6 kinase alpha-4 (Homo sapiens) (UniProt O75676); settings: Compound concentration 1000.0 nM
[16] = target: Ribosomal protein S6 kinase beta-1 (Homo sapiens) (UniProt P23443); settings: Compound concentration 1000.0 nM
[17] = target: Tyrosine-protein kinase Srms (Homo sapiens) (UniProt Q9H3Y6); settings: Compound concentration 1000.0 nM
[18] = target: Angiopoietin-1 receptor (Homo sapiens) (UniProt Q02763); settings: Compound concentration 1000.0 nM
Angiopoietin-1 receptor (Homo sapiens), sequence (Q02763 whole entry): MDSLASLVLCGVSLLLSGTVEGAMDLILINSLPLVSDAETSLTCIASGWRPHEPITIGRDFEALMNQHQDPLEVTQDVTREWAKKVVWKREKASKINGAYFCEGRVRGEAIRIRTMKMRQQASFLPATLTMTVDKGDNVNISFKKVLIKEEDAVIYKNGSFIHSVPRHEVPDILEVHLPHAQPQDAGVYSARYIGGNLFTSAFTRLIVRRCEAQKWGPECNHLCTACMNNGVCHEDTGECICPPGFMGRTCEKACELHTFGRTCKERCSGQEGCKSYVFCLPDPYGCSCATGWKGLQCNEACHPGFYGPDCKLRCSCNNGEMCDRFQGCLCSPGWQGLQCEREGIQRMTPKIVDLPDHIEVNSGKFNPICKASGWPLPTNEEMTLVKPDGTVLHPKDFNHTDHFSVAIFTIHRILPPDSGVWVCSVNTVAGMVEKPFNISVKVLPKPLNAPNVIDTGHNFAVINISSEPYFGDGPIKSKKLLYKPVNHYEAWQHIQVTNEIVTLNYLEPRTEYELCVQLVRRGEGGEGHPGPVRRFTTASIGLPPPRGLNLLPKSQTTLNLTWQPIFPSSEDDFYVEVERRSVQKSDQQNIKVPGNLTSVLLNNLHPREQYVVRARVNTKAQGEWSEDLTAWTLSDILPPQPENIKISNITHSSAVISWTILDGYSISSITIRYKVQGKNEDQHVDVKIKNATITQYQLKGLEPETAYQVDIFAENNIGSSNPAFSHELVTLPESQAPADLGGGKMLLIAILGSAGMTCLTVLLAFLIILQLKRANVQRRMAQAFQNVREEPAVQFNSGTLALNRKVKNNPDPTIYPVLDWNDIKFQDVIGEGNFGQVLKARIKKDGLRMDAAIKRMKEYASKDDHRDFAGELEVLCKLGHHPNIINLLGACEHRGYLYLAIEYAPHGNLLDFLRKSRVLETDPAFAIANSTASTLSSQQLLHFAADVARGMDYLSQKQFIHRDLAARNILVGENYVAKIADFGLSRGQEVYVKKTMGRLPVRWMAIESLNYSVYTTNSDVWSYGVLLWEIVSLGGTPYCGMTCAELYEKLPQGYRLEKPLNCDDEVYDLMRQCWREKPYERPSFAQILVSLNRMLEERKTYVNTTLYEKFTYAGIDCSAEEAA

[19] = target: Tyrosine-protein kinase TXK (Homo sapiens) (UniProt P42681); settings: Compound concentration 1000.0 nM
[20] = target: Alpha-1A adrenergic receptor (Homo sapiens) (UniProt P35348); settings: Compound concentration 10.0 uM
[21] = target: Muscarinic acetylcholine receptor M5 (Homo sapiens) (UniProt P08912); settings: Compound concentration 10.0 uM
[22] = target: Sigma intracellular receptor 2 (Homo sapiens) (UniProt Q5BJF2); settings: Compound concentration 10.0 uM
[23] = target: Serotonin 1 (5-HT1) receptor (Rattus norvegicus) (UniProt P28564+P30940+P19327+P28565); settings: Compound concentration 10.0 uM
[24] = target: Adenosine receptor A1 (Homo sapiens) (UniProt P30542); settings: Compound concentration 10.0 uM
[25] = target: Adrenergic receptor alpha-1 (Rattus norvegicus) (UniProt P15823+P23944+P43140); settings: Compound concentration 10.0 uM
[26] = target: Adrenergic receptor alpha-2 (Rattus norvegicus) (UniProt P22086+P19328+P22909); settings: Compound concentration 10.0 uM
[27] = target: Nitric oxide synthase 3 (Rattus norvegicus) (UniProt Q62600); settings: Compound concentration 10.0 uM
[28] = target: D(2) dopamine receptor (Homo sapiens) (UniProt P14416); settings: Compound concentration 10.0 uM
[29] = target: D(3) dopamine receptor (Homo sapiens) (UniProt P35462); settings: Compound concentration 10.0 uM
[30] = target: T1, D(4) dopamine receptor (Homo sapiens) (UniProt P21917); settings: Compound concentration 10.0 uM
T1 sequence (whole entry): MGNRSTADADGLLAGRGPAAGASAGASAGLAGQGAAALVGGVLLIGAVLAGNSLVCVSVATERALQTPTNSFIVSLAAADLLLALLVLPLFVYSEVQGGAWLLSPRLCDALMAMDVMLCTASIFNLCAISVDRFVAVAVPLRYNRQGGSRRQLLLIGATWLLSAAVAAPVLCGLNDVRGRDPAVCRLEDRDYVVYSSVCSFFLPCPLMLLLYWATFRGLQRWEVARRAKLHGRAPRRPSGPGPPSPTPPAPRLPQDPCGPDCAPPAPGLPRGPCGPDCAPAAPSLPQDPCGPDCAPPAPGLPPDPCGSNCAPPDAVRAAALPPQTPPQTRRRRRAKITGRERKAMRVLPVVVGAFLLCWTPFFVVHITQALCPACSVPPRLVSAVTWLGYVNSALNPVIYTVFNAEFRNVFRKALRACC

[31] = target: Histamine H1 receptor (Homo sapiens) (UniProt P35367); settings: Compound concentration 10.0 uM
[32] = target: Histamine H2 receptor (Homo sapiens) (UniProt P25021); settings: Compound concentration 10.0 uM
[33] = target: ATP-sensitive inward rectifier potassium channel 1 isoform X1 (Mesocricetus auratus) (UniProt A0A1U8CU73); settings: Compound concentration 10.0 uM
[34] = target: Leukotriene C4 synthase (Cavia porcellus) (UniProt A6XA80); settings: Compound concentration 10.0 uM
Leukotriene C4 synthase (Cavia porcellus), sequence (A6XA80 whole entry): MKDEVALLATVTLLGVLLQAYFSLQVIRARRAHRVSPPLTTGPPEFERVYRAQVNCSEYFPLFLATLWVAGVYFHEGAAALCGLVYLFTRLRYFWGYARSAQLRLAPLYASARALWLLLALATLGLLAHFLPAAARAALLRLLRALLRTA

[35] = target: Acetylcholine receptor subunit alpha (Homo sapiens) (UniProt P02708); settings: Compound concentration 10.0 uM
[36] = target: Opioid receptor (Rattus norvegicus) (UniProt P33533+P34975+P33535); settings: Compound concentration 10.0 uM
[37] = target: cGMP-inhibited 3',5'-cyclic phosphodiesterase 3A (Homo sapiens) (UniProt Q14432); settings: Compound concentration 10.0 uM
[38] = target: Cathepsin G (Homo sapiens) (UniProt P08311); settings: Compound concentration 10.0 uM
[39] = target: 5-hydroxytryptamine receptor 1A (Homo sapiens) (UniProt P08908); settings: Compound concentration 10.0 uM
[40] = target: Muscarinic acetylcholine receptor M3 (Homo sapiens) (UniProt P20309); settings: Compound concentration 10.0 uM

Activin receptor type-1-like (Homo sapiens), sequence (P37023 whole entry): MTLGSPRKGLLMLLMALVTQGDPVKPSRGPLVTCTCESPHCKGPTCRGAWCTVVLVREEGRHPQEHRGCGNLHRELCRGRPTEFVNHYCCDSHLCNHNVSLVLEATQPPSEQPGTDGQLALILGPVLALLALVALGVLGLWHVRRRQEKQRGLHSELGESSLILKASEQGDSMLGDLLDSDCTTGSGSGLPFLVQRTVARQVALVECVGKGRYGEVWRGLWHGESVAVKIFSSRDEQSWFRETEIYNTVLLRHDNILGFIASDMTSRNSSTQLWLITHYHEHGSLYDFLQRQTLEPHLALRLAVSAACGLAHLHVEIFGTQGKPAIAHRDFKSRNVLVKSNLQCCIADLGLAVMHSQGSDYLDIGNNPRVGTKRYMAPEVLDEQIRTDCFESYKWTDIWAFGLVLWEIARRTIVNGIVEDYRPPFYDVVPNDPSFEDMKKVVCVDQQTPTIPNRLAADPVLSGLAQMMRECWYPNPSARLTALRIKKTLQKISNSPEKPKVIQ

CCS(=O)(=O)c1cc2cc(C[C@](O)(CC(C)(C)c3ccc(F)cc3C(N)=O)C(F)(F)F)[nH]c2cn1
inactive: residual activity [1] 100% | residual activity [2] 100% | residual activity [3] 99% | residual activity [4] 100% | residual activity [5] 100% | residual activity [6] 100% | residual activity [7] 100% | residual activity [8] 94% | residual activity [9] 77% | residual activity [10] 100% | residual activity [11] 98% | residual activity [12] 81% | residual activity [13] 100% | residual activity [14] 85% | residual activity [15] 98% | residual activity [16] 82% | residual activity [17] 83% | residual activity [18] 90% | residual activity [19] 90% | inhibition [20] -0.31% | inhibition [21] 1.86% | inhibition [22] 9.04% | residual activity [23] 118% | residual activity [24] 107% | residual activity [25] 89% | residual activity [26] 106% | residual activity [27] 99% | residual activity [28] 90% | residual activity [29] 81% | residual activity [30] 104% | residual activity [31] 100% | residual activity [32] 96% | residual activity [33] 104% | residual activity [34] 104% | residual activity [35] 101% | residual activity [36] 95% | residual activity [37] 82% | residual activity [38] 104%

CCS(=O)(=O)c1cc2cc(C[C@@](O)(CC(C)(C)c3ccc(F)cc3C(N)=O)C(F)(F)F)[nH]c2cn1
inactive: residual activity [1] 67% | residual activity [2] 100% | residual activity [3] 73% | residual activity [4] 100% | residual activity [5] 90% | residual activity [6] 100% | residual activity [7] 100% | residual activity [8] 100% | residual activity [9] 100% | residual activity [10] 100% | residual activity [11] 100% | residual activity [12] 100% | residual activity [13] 99% | residual activity [14] 81% | residual activity [15] 78% | residual activity [16] 80% | residual activity [17] 72% | residual activity [18] 94% | residual activity [19] 97% | inhibition [39] -7.37% | inhibition [40] 1.25% | inhibition [21] -0.62%
